# Target: unphosphorylated-BTK kinase domain (UP-BTK), GST-tagged human BTK (389-659aa) (Homo sapiens (Human), UniProt Q06187)
# Assay: BTK Kinase Lanthascreen Binding Assay
# Conditions: Lanthascreen binding, 60 minutes incubation; pIC50 = negative log of the IC50 in molar
# Procedure: BTK Kinase Lanthascreen Binding Assay:
# A BTK kinase lanthascreen binding assay monitors compound binding to unphosphorylated-BTK kinase domain (UP-BTK), by competing with a fluorescent labeled tracer. […] Data were analyzed using Xlfit™ version 5.3 from ID Business Solutions (Guildford), Microsoft Excel add-in. pIC50 refers to the negative log of the IC50 in molar.
# unphosphorylated-BTK kinase domain (UP-BTK), GST-tagged human BTK (389-659aa), sequence (Q06187 389-659): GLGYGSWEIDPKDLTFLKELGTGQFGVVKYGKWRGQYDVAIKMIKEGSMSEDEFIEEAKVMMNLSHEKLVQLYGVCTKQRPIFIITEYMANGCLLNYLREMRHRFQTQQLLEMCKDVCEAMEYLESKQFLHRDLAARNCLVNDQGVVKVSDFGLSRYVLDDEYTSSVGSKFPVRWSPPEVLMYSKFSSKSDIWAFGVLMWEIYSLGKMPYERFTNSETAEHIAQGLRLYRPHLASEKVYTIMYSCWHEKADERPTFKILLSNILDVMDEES
row,BTK_I_binding pIC50,Structure (SMILES)
1,6.44,"CC(=O)N[C@@H]1CCC[C@H]1NC(=O)c1sc2nccc3c2c1NC(=O)N3c1ccc(Oc2ccccc2)nc1C (single isomer, unassigned) [Example 358, N-((1R,2R)-2-Acetamidocyclopentyl)-5-(*S)-(2-methyl-6-phenoxypyridin-3-yl)-4-oxo-4,5-dihydro-3H-1-thia-3,5,8-triazaacenaphthylene-2-carboxamide]"
2,6.85,"C=CC(=O)N[C@@H]1CC[C@@H](NC(=O)c2sc3nccc4c3c2NC(=O)N4c2cnc(Oc3ccccc3)cc2C)C1 (single isomer, unassigned) [Example 329, N-((1*R,3*R)-3-Acrylamidocyclopentyl)-5-(*S)-(4-methyl-6-phenoxypyridin-3-yl)-4-oxo-4,5-dihydro-3H-1-thia-3,5,8-triazaacenaphthylene-2-carboxamide]"
3,7.71,"C=CC(=O)N[C@H]1CC[C@H](NC(=O)c2sc3nccc4c3c2NC(=O)N4c2ccc(Oc3ccccc3)nc2)C1 (single isomer, unassigned) [Example 321, N-((1*S,3*S)-3-Acrylamidocyclopentyl)-4-oxo-5-(6-phenoxypyridin-3-yl)-4,5-dihydro-3H-1-thia-3,5,8-triazaacenaphthylene-2-carboxamide]"

# Same assay, conditions: compound, 50 nM Tracer 236, 2 nM anti-GST antibody, 60 minutes; pIC50 = negative log of the IC50 in molar
row,BTK_I_binding pIC50,Structure (SMILES)
1,7.49,"CC(=O)N[C@H]1CCC[C@H]1NC(=O)c1sc2nccc3c2c1NC(=O)N3c1ccc(Oc2ccccc2)cc1C (single isomer, unassigned) [Example 138, N-((1R,2S)-2-Acetamidocyclopentyl)-5-(*S)-(2-methyl-4-phenoxyphenyl)-4-oxo-4,5-dihydro-3H-1-thia-3,5,8-triazaacenaphthylene-2-carboxamide]"
2,7.28,"CC(=O)N[C@H]1CC[C@@H](NC(=O)c2sc3nccc4c3c2NC(=O)N4c2ccc(Oc3ccccc3)cc2C)CC1 [Example 64, N-((1S,4S)-4-Acetamidocyclohexyl)-5-(2-methyl-4-phenoxyphenyl)-4-oxo-4,5-dihydro-3H-1-thia-3,5,8-triazaacenaphthylene-2-carboxamide]"

# Continued, compound first:
row,Structure (SMILES),BTK_I_binding pIC50
1,"CNC1CC[C@H](NC(=O)c2sc3nccc4c3c2NC(=O)N4c2ccc(Oc3ccccc3)cc2C)C1 (mixture of isomers) [Example 80, 5-(2-Methyl-4-phenoxyphenyl)-N-((1S)-3-(methylamino)cyclopentyl)-4-oxo-4,5-dihydro-3H-1-thia-3,5,8-triazaacenaphthylene-2-carboxamide]",6.42
2,"C=CC(=O)N[C@@H]1CC[C@H](NC(=O)c2sc3nccc4c3c2NC(=O)N4c2ccc(OC(C)C)cc2C)C1 [Example 110, N-((1S,3R)-3-Acrylamidocyclopentyl)-5-(4-isopropoxy-2-methylphenyl)-4-oxo-4,5-dihydro-3H-1-thia-3,5,8-triazaacenaphthylene-2-carboxamide]",7.23
3,"C=CC(=O)N[C@H]1CCCC[C@H]1NC(=O)c1sc2nccc3c2c1NC(=O)N3c1ccc(OC(C)C)cc1C (single isomer, unassigned) [Example 174, N-((1R,2S)-2-Acrylamidocyclohexyl)-5-(*R)-(4-isopropoxy-2-methylphenyl)-4-oxo-4,5-dihydro-3H-1-thia-3,5,8-triazaacenaphthylene-2-carboxamide]",8.28
4,"Cc1cc(Oc2ccccc2)ccc1N1C(=O)Nc2c(C(=O)N[C@H]3CCCC[C@@H]3N)sc3nccc1c23 [Example 58, N-((1S,2S)-2-Aminocyclohexyl)-5-(2-methyl-4-phenoxyphenyl)-4-oxo-4,5-dihydro-3H-1-thia-3,5,8-triazaacenaphthylene-2-carboxamide]",5.51

# Same assay, conditions: read-out: BTK_I_binding pIC50 (converted)
row,IC50,Structure (SMILES)
1,> 1000 nM,"CCC(=O)N[C@H]1CCCC[C@H]1NC(=O)c1sc2nccc3c2c1NC(=O)N3c1ccc(Oc2ccccc2)nc1C (single isomer, unassigned) [Example 364, 5-(*S)-(2-Methyl-6-phenoxypyridin-3-yl)-4-oxo-N-((1R,2R)-2-propionamidocyclohexyl)-4,5-dihydro-3H-1-thia-3,5,8-triazaacenaphthylene-2-carboxamide]"

# From US10934310B2, “Inhibitors of Bruton's tyrosine kinase and method of their use” (JANSSEN PHARMACEUTICA NV, priority 2015, dated 2021)
